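Dose response: 5 concentrations. Exposure: 48 h. Format: 96-well plates. Endpoint: linear interpolation; highest concentration if not reached. The concentration for 50% growth inhibition is given as GI50.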 The source made the active and inactive calls. Rule as the data show it: active = GI50 up to about 1.1 µM and inactive = higher.
How the values were obtained:
Experiment in all cases: inhibition of tumour cell growth, NCI panel, 48 h
CCRF-CEM = test system: CCRF-CEM
HL-60 = test system: HL-60
HOP-62 = test system: HOP-62
LOX IMVI = test system: LOX IMVI
NCI-H460 = test system: NCI-H460
OVCAR-3 = test system: OVCAR-3
OVCAR-4 = test system: OVCAR-4
RPMI-8226 = test system: RPMI-8226
RXF 393 = test system: RXF 393
SK-MEL-2 = test system: SK-MEL-2
SN12C = test system: SN12C
SW-620 = test system: SW-620
TK-10 = test system: TK-10
U-251 = test system: U-251
UO-31 = test system: UO-31
SF-539 = test system: SF-539

Measured: GI50

O=CC1CCCc2ccccc21 (configuration not stated)
inactive: CCRF-CEM > 49.7 µM | HL-60 > 63 µM | HOP-62 > 100 µM | LOX IMVI > 44.1 µM | NCI-H460 > 61.8 µM | OVCAR-3 > 100 µM | OVCAR-4 > 100 µM | RPMI-8226 > 43.1 µM | RXF 393 > 100 µM | SK-MEL-2 > 100 µM | SN12C > 100 µM | SW-620 > 40.4 µM | TK-10 > 100 µM | U-251 > 41.5 µM | UO-31 > 100 µM

CCCCNC(=S)OCCC(C)CCCC(C)C (configuration not stated)
inactive: CCRF-CEM > 100 µM | HL-60 > 100 µM | HOP-62 > 100 µM | LOX IMVI > 100 µM | NCI-H460 > 100 µM | OVCAR-4 > 100 µM | RPMI-8226 > 100 µM | RXF 393 > 100 µM | SF-539 > 100 µM | SK-MEL-2 > 100 µM | SN12C > 100 µM | SW-620 > 100 µM | TK-10 > 100 µM | U-251 > 100 µM | UO-31 > 100 µM

CSc1cccc(-n2c3nc(=O)n(C)c(=O)c-3nc3ccccc32)c1
inactive: CCRF-CEM 11 µM | HL-60 3.34 µM | HOP-62 18.1 µM | NCI-H460 2.4 µM | OVCAR-3 2.26 µM | OVCAR-4 9.53 µM | RPMI-8226 5.77 µM | SF-539 2.16 µM | SK-MEL-2 13 µM | SN12C 5.38 µM | SW-620 3.78 µM | TK-10 21.8 µM | U-251 7.98 µM | UO-31 17.4 µM

Cc1cc(Cl)ccc1NC(=O)C(=O)Cc1nc2ccc(C(=O)c3ccccc3)cc2nc1O
inactive: CCRF-CEM 35.6 µM | HL-60 99.5 µM | HOP-62 92 µM | LOX IMVI > 100 µM | NCI-H460 96.8 µM | OVCAR-3 > 100 µM | OVCAR-4 > 100 µM | RXF 393 > 100 µM | SF-539 > 100 µM | SK-MEL-2 > 100 µM | SN12C > 100 µM | SW-620 97.9 µM | TK-10 > 100 µM | UO-31 78.7 µM

N=C(N)NCCCC(Nc1c2ccccc2[n+]([O-])c2ccccc12)C(=O)O (configuration not stated)
inactive: CCRF-CEM 33.4 µM | HL-60 14.8 µM | HOP-62 > 100 µM | LOX IMVI 37.3 µM | NCI-H460 46 µM | OVCAR-3 63.4 µM | OVCAR-4 65.5 µM | RPMI-8226 10.4 µM | SK-MEL-2 88.3 µM | SN12C 44.1 µM | SW-620 59.2 µM | TK-10 > 100 µM | U-251 72.3 µM | UO-31 30.8 µM

CCN(CC)CC(=O)NC1c2ccccc2Oc2ccccc21
inactive: CCRF-CEM > 100 µM | HL-60 > 100 µM | HOP-62 > 100 µM | LOX IMVI > 100 µM | NCI-H460 > 100 µM | OVCAR-4 > 100 µM | RPMI-8226 > 100 µM | RXF 393 > 100 µM | SF-539 > 100 µM | SN12C > 100 µM | SW-620 > 100 µM | TK-10 > 100 µM | U-251 > 100 µM | UO-31 > 100 µM

N#CCCN(c1ccc(/C=C2\N=C(Cc3ccccc3)OC2=O)cc1)S(=O)(=O)c1ccccc1
inactive: CCRF-CEM > 100 µM | HL-60 > 100 µM | HOP-62 > 100 µM | LOX IMVI > 100 µM | NCI-H460 > 100 µM | OVCAR-3 > 100 µM | RPMI-8226 > 100 µM | RXF 393 > 100 µM | SF-539 > 100 µM | SK-MEL-2 > 100 µM | SN12C > 100 µM | SW-620 > 100 µM | TK-10 > 100 µM | U-251 > 100 µM | UO-31 > 100 µM

C/C(CC(=O)Nc1cccc([N+](=O)[O-])c1)=N\NC(=O)C[n+]1ccccc1
inactive: CCRF-CEM > 100 µM | HL-60 > 100 µM | HOP-62 > 100 µM | LOX IMVI > 100 µM | NCI-H460 > 100 µM | OVCAR-3 > 100 µM | RPMI-8226 > 100 µM | RXF 393 > 100 µM | SF-539 > 100 µM | SK-MEL-2 > 100 µM | SW-620 > 100 µM | TK-10 > 100 µM | U-251 > 100 µM | UO-31 > 100 µM

C/C(=N\N(C)C)c1sc(-n2nc(-c3ccccc3)cc2-c2ccccc2)nc1C
inactive: CCRF-CEM > 100 µM | HL-60 > 100 µM | HOP-62 > 100 µM | LOX IMVI 16.3 µM | NCI-H460 > 100 µM | OVCAR-3 47.9 µM | OVCAR-4 > 100 µM | RXF 393 > 100 µM | SF-539 > 100 µM | SK-MEL-2 > 100 µM | SN12C > 100 µM | SW-620 > 100 µM | TK-10 72.8 µM | U-251 91.6 µM | UO-31 > 100 µM

O=C(Nc1cc(Cl)ccc1Cl)c1cc2cccc(Br)c2oc1=O
inactive: CCRF-CEM > 100 µM | HL-60 > 100 µM | HOP-62 47.2 µM | LOX IMVI > 100 µM | NCI-H460 > 100 µM | OVCAR-3 59.8 µM | RPMI-8226 > 100 µM | RXF 393 > 100 µM | SF-539 56.4 µM | SK-MEL-2 > 100 µM | SN12C > 100 µM | SW-620 > 100 µM | TK-10 > 100 µM | U-251 70.5 µM | UO-31 > 100 µM

CCOC(=O)C(/C(=N\NC(=O)OC)C(=O)Nc1cc(OC)ccc1OC)c1cnc2ccccc2n1 (configuration not stated)
inactive: CCRF-CEM > 100 µM | HL-60 69.2 µM | HOP-62 > 100 µM | LOX IMVI > 100 µM | NCI-H460 > 100 µM | OVCAR-4 > 100 µM | RPMI-8226 > 100 µM | RXF 393 > 100 µM | SF-539 > 100 µM | SN12C > 100 µM | SW-620 > 100 µM | TK-10 > 100 µM | U-251 > 100 µM | UO-31 > 100 µM

COC(=O)N/N=C/c1oc(-c2cccc([N+](=O)[O-])c2)c(-c2cccc([N+](=O)[O-])c2)c1[N+](=O)[O-]
inactive: CCRF-CEM 22.1 µM | HL-60 19.3 µM | HOP-62 > 100 µM | LOX IMVI 37.2 µM | NCI-H460 > 100 µM | OVCAR-3 > 100 µM | OVCAR-4 > 100 µM | RPMI-8226 30.1 µM | RXF 393 > 100 µM | SN12C > 100 µM | SW-620 > 100 µM | TK-10 > 100 µM | U-251 > 100 µM | UO-31 > 100 µM

O=C(CN1CCN(c2cccc(Cl)c2)CC1)N1CCc2c([nH]c3ccccc23)C1c1cccnc1 (configuration not stated)
inactive: CCRF-CEM 3.15 µM | HL-60 2.38 µM | HOP-62 14.7 µM | NCI-H460 4.4 µM | OVCAR-3 15.5 µM | OVCAR-4 13.5 µM | RPMI-8226 1.92 µM | RXF 393 2.67 µM | SF-539 15.5 µM | SN12C 9.57 µM | SW-620 7.14 µM | TK-10 26.2 µM | U-251 10.2 µM | UO-31 4.1 µM

— ChEMBL document CHEMBL1201862, “PubChem BioAssay data set” (2004)
